Measurements: patent US6692927B2, “Bax degradation involvement in tumor survival and progression” (University of South Florida, priority 2000, dated 2004)
Where a SMILES comes first, the peptide text is derived from it. [ ]: non-standard residue; d: D form. The star is where a group is joined. Nva = CCC[C@H](N)C(=O)O; Cbz = O=C(OCc1ccccc1)*

Assays:
Jurkat T cells = assay: Western blot and Bax IP/ubiquitin blot in Jurkat T cells; format: cell-based, human
Method: FIGS. 8A-8D show proteasome inhibition accumulates Bax to mitochondria/cytoplasm and increases interaction between Bax and Bcl-2 proteins. Jurkat cells (0 h; FIG. 8A and FIG. 8B) or Jurkat cells overexpressing Bcl-2 (0 h; FIG. 8C and FIG. 8D) were treated by either 10 μM lactacystin (FIGS. 8A-8C), 50 μM LLnV (FIG. 8D), or 50 μM LLM (FIG. 8A and FIG. 8B) for the indicated hours. (FIG. 8A and FIG. 8B) Western blotting with antibodies to PARP and Bax were performed as described in FIG. 7. (FIG. 8C) Immunohistochemistry (see MATERIALS AND METHODS). Localization of Bax protein (green) and nuclei (red) are shown. (FIG. 8D) Bax immunoprecipitates, prepared by an agarose-conjugated N-20 Bax antibody, were immunoblotted first with the 6A7 Bax antibody (upper) and then reblotted with a Bcl-2 antibody (lower).
FIGS. 9A-9F show Bax degradation depends on ubiquitination, proteasome and ATP. (FIG. 9A) Jurkat cells (0 h) were treated with either 50 μM LLnV or 10 μM lactacystin, followed by preparation of Bax immunoprecipitates (with clone 6A7), which were immunoblotted with an ubiquitin antibody. Positions of putative ubiquitinated Bax proteins (p47, p55) are indicated at left. The nature of the ˜30 kDa and ˜84 kDa remains unclear. (FIG. 9B) The [^35S]-labeled Bax (upper) or Bcl-2 (lower) protein (1 μl) were incubated at 37° C. for 2 h with either buffer Z only (lane 1) or […] protein extract of MCF-7 cells grown exponentially (lane 2) or pretreated for 8 h with […] LLnV (lane 3). (FIG. 9C) The [^35S]-labeled Bax protein (1 μl) was incubated with either buffer Z only (lane 1) or 100 μg MCF-7 cell lysate at 37° C. for 4 h, in the presence of an indicated inhibitor (100 mM; lanes 3-8) or an equal volume of DMSO (lane 2) in buffer Z. A weak band of ˜16 kDa (indicated by an arrow) is probably an intermediate product of proteasome-mediated Bax degradation. (FIG. 9D) The proteasome in MCF-7 whole cell lysate (W lys, lane 1) was precipitated by using either ultraspin (ULS) or a proteasome subunit a6 antibody (IP). Both supernatant (lanes 2, 4) and pellet (lanes 3, 5) fractions were examined by Western blot assay using antibody to the proteasome a6 subunit (MW 33 kDa). (FIG. 9E) Bax degradation assay was performed as in FIG. 9B, with addition of buffer Z (lane 1) or 100 μg protein from MCF-7 whole cell lysate (lane 2), ultraspun supernatant (lane 3) or plus the pellet (lane 4), immunodepleted supernatant (lane 5) or plus a purified 20S proteasome ([…]; lane 6), or the purified proteasome alone (2 μg; lane 7). (FIG. 9F) Bax degradation assay was performed as in FIG. 9B, in the absence (lane 3) or presence of 10 mM ATP (lane 2) or 10 mM ATP-y-S (lane 4). […]

Bax degradation activity = assay: cell-free Bax degradation assay, inhibitor added to MCF-7 cell extract; format: biochemical, human; details: 10-minute preincubation of MCF-7 cell extract with inhibitor (100 mM per FIG. 9C legend), 37° C., 4 h
Method: FIGS. 9A-9F show Bax degradation depends on ubiquitination, proteasome and ATP. (FIG. 9A) Jurkat cells (0 h) were treated with either 50 μM LLnV or 10 μM lactacystin, followed by preparation of Bax immunoprecipitates (with clone 6A7), which were immunoblotted with an ubiquitin antibody. Positions of putative ubiquitinated Bax proteins (p47, p55) are indicated at left. The nature of the ˜30 kDa and ˜84 kDa remains unclear. (FIG. 9B) The [^35S]-labeled Bax (upper) or Bcl-2 (lower) protein (1 μl) were incubated at 37° C. for 2 h with either buffer Z only (lane 1) or […] protein extract of MCF-7 cells grown exponentially (lane 2) or pretreated for 8 h with […] LLnV (lane 3). (FIG. 9C) The [^35S]-labeled Bax protein (1 μl) was incubated with either buffer Z only (lane 1) or 100 μg MCF-7 cell lysate at 37° C. for 4 h, in the presence of an indicated inhibitor (100 mM; lanes 3-8) or an equal volume of DMSO (lane 2) in buffer Z. A weak band of ˜16 kDa (indicated by an arrow) is probably an intermediate product of proteasome-mediated Bax degradation. (FIG. 9D) The proteasome in MCF-7 whole cell lysate (W lys, lane 1) was precipitated by using either ultraspin (ULS) or a proteasome subunit a6 antibody (IP). Both supernatant (lanes 2, 4) and pellet (lanes 3, 5) fractions were examined by Western blot assay using antibody to the proteasome a6 subunit (MW 33 kDa). (FIG. 9E) Bax degradation assay was performed as in FIG. 9B, with addition of buffer Z (lane 1) or 100 μg protein from MCF-7 whole cell lysate (lane 2), ultraspun supernatant (lane 3) or plus the pellet (lane 4), immunodepleted supernatant (lane 5) or plus a purified 20S proteasome ([…]; lane 6), or the purified proteasome alone (2 μg; lane 7). (FIG. 9F) Bax degradation assay was performed as in FIG. 9B, in the absence (lane 3) or presence of 10 mM ATP (lane 2) or 10 mM ATP-y-S (lane 4).
In vitro Bax Degradation Assay: Human Bax-a cDNA subcloned into pcDNA3 was a gift from Dr. Hong-gang Wang. Human full length of bcl-2-a cDNA was cloned from Jurkat T cells and subcloned into pcDNA3.1(−) as described+. Both bax and bcl-2 plasmids were used for coupled in vitro transcription/translation (Promega; Madison, Wis.) in the presence of [^35S]methionine (Amersham Pharmacia Biotech; Piscataway, N.J.). Protein extracts were prepared from either MCF-7 cells or prostate tumor tissues in buffer Y (50 mM Tris-HCl, pH 7.4, 250 mM NaCl, 1% Triton X-100, 0.1% SDS, 1 mM EDTA), and used for Bax (or Bcl-2) degradation assay. Briefly, 1 microl of [^35S]-labeled Bax (or Bcl-2) protein was incubated at 37° C. for 2-4 hours with 100-200 microg protein extract in buffer Z (50 mM Tris-HCl, pH 7.4, 5 mM MgCl2, 3 mM DTT, 10 mM ATP, 10 mM phosphocreatine, 10 microg/ml creatine phosphokinase, 10 microg/ml aprotinin, 10 microg/ml leupeptin, 10% glycerol and 2 microg/ml ubiquitin). After incubation, the samples were subjected to gel electrophoresis and autoradiography. Under the cell-free assay conditions, the calpain-mediated Bax cleavage activity was blocked by omission of calcium and addition of the protease inhibitor leupeptin (Wood et al, 1998). To deplete the proteasome, MCF-7 cell lysates were either immunoprecipitated with the 20S proteasome subunit a6 antibody or ultracentrifugated at 100,000×g for 6 hours. The proteasome-enriched pellet fraction was resuspended in buffer Y.
To further study the proteasome activity that degrades Bax protein, a cell-free Bax degradation assay was developed by using an in vitro-translated, [^35S]-labeled Bax protein as substrate (FIG. 9B, upper, lane 1). The Bax degradation activity is present in protein extracts prepared from exponentially growing MCF-7 (FIG. 9), K562, VA-13, WI-38, Jurkat T or HL-60 cells. The labeled Bax was almost completely degraded by a MCF-7 cell extract after 2 to 4 hours incubation at 37° C. (FIG. 9B, upper, and FIG. 9C, lanes 2 vs. 1). […]

| Compound | p55 and p47 levels (putative ubiquitinated Bax) (Jurkat T cells; 50 μM LLnV, 8 hours) | Bax degradation process/activity (Bax degradation activity) | p55 and p47 levels (putative ubiquitinated Bax) (Jurkat T cells; 10 μM lactacystin, 4 hours) | Bax accumulation and PARP cleavage (Jurkat T cells; 10 microM) |
| --- | --- | --- | --- | --- |
| CCC[C@@H](C=O)NC(=O)[C@H](CC(C)C)NC(=O)[C@H](CC(C)C)NC(=O)OCc1ccccc1 [LLnV] (Cbz-Leu-Leu-[Nva]-aldehyde) | significantly increased | blocked |  |  |
| CC(=O)N[C@@H](CSC(=O)[C@]1([C@@H](O)C(C)C)NC(=O)[C@H](C)[C@@H]1O)C(=O)O [lactacystin] |  | not | significantly increased | induced Bax accumulation and PARP cleavage |
